Assay results from publication PMC12362587, “Untargeted Diversity-Oriented Synthesis for the Discovery of New Antitumor Agents: An Integrated Approach of Inverse Virtual Screening, Bioinformatics, and Omics for Target Deconvolution” (Journal of Medicinal Chemistry, 2025).
Values joined by “and” are separate entries in the source; they are usually repeats but may differ in a detail not shown here. Equal values may be shown once.

Assays:
[1] = system: A375; assay: MTT cell viability assay; format: cell-based; conditions: Homo sapiens, A-375, 24 h, compounds 0.01–40 μM, read-out: In Vitro Cytotoxicity, EC50 ± SD, A375
Description: (§1) Initially, we phenotypically screened the synthesized compounds over a panel of tumor cell lines composed of HEPG2, A375, SHSY5Y, MCF7, and A549 derived from liver tumor, melanoma, neuroblastoma, breast cancer, and lung adenocarcinoma, respectively. We also considered the HaCaT cell line, coming from keratinocytes, as a healthy control line. As reference, cytotoxic chemotherapeutic agent 5-fluorouracil (5-FU) has been used. The results obtained performing the MTT (3-(4,5-dimethylthiazolyl-2)-2,5-diphenyltetrazolium bromide) assay are summarized in Table .
(§2) The human neuroblastoma SHSY5Y, melanoma A375, human breast cancer MCF7, nonsmall lung cancer A549, and human epidermal keratinocyte HaCaT cell lines were obtained from ATCC and were grown in Dulbecco’s Modified Eagle Medium (DMEM) supplemented with 10% (v/v) FBS, 2 mM L-glutamine, 100 U/mL penicillin, and 0.1 mg/mL streptomycin.
(§3) Cell viability was established by measuring mitochondrial metabolic activity with MTT. In brief, HEPG2 (1 × 10^4 cells/well), A375 (2 × 10^3 cells/well), HaCaT (3 × 10^3 cells/well), A549 (3 × 10^3 cells/well), SHSY5Y (2 × 10^4 cells/well), and MCF 7 (5 × 10^3 cells/well) were plated into 96-well plates for 24 h, then the compounds (0.01–40 μM) were added. After 24h, cells were replaced with a fresh medium containing 0.5 mg/mL MTT. Cells were incubated 1–3 h at 37 °C, then the medium was discarded, and formazan blue crystals in the cells were dissolved in 100 μL per well of a solution containing isopropanol/HCl 0.1 M. The absorbance was measured at 570 nm using a microplate reader (Multiskan Go, Thermo Scientific, Waltham, MA, USA). Cell viability was expressed as a percentage relative to the untreated cells cultured in medium with 0.1% DMSO and set to 100%, whereas 10% DMSO was used as positive control and set to 0% of viability. The EC50 values were calculated using GraphPad Prism 8.0 software by nonlinear regression of dose–response inhibition.

[2] = system: A549; assay: MTT cell viability assay; format: cell-based; conditions: Homo sapiens, 24 h, compounds 0.01–40 μM, read-out: In Vitro Cytotoxicity, EC50 ± SD, A549
Description: as §1, §2, §3

[3] = system: MCF7; assay: MTT cell viability assay; format: cell-based; conditions: Homo sapiens, 24 h, compounds 0.01–40 μM, read-out: In Vitro Cytotoxicity, EC50 ± SD, MCF7
Description: as §1, §2, §3

[4] = system: SHSY5Y; assay: MTT cell viability assay; format: cell-based; conditions: Homo sapiens, SH-SY5Y, 24 h, compounds 0.01–40 μM, read-out: In Vitro Cytotoxicity, EC50 ± SD, SHSY5Y
Description: as §1, §2, §3

[5] = target: T1, Cathepsin K (Homo sapiens, UniProt P43235); assay: Cathepsin K Inhibitor Screening Assay Kit (BPS Bioscience); format: biochemical; conditions: top concentration 30 μM; read-out: EC50 or IC50, Cathepsin K
T1 construct: purchased BPS Bioscience
T1 sequence (P43235 115-329): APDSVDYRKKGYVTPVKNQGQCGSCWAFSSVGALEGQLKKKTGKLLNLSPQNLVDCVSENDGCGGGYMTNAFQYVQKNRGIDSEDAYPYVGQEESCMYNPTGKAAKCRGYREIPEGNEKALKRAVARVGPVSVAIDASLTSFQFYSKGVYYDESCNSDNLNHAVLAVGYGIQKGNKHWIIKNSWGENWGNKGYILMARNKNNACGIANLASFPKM
Description: The assay was performed in a volume of 50 μL in a 96-well black plate. The Cathepsin K inhibitor assay (BPS Bioscience, USA) was designed to measure protease activity by the presence of an internally quenched fluorogenic substrate. Upon cleavage by Cathepsin K (CTSK), the fluorescence of the substrate increases dramatically. For the activity measurement, protease (final concentration, 0.5 ng per reaction), the Fluorogenic Cathepsin K Substrate (final concentration, 70 μM), E-64 (known inhibitor, as positive control) or compounds were incubated for 1 h at room temperature. The compounds were added at different concentrations in the reaction buffer, starting with a final concentration of 30 μM. Buffer with the same amount of DMSO (1%) was used as a negative control. After the incubation time, the fluorescence signals (excitation/emission, 360 nm/460 nm) were read with a PerkinElmer EnSpire multimode plate reader (PerkinElmer, Waltham, MA, USA). Experiments were performed in triplicate. IC50 values were calculated with GraphPad Prism 8.0 software by nonlinear dose–response inhibition regression.

[6] = target: T2, A1 Human Adenosine GPCR (Homo sapiens, UniProt P30542); assay: Binding Agonist Radioligand LeadHunter Assay; conditions: Eurofins, read-out: EC50 or IC50, A1 Human Adenosine GPCR, agonist radioligand
T2 construct: Eurofins (contract assay)
T2 sequence (P30542 1-326): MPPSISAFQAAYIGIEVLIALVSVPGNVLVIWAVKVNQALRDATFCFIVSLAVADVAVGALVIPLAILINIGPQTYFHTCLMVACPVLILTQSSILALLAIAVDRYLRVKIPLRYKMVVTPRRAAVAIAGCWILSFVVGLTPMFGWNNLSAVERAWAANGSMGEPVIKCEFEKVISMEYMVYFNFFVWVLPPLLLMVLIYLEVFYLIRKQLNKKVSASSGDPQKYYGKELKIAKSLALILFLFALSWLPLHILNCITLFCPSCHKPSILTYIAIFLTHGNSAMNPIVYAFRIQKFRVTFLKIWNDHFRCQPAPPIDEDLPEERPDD
Description: (§4) For displacement assays on G-protein coupled receptor 55 (GPR55), Vasopressin V2 receptor (V2R), Adenosine A1 receptor (A1AR), Fibroblast growth factor receptor 1 (FGFR1), Vascular endothelial growth factor receptor 2 (VEGFR2), Platelet-derived growth factor receptor beta (PDGFRB), Vascular endothelial growth factor receptor 1 (VEGFR1), Thromboxane Synthase (TXS) and Phosphodiesterase 10A (PDE10A), we commissioned the Eurofins company which employed its specific experimental methods, accessible at the link: https://www.eurofins.com/.

[7] = target: T3, V2 Human Vasopressin/Oxytocin GPCR (Homo sapiens, UniProt P30518); assay: Binding Agonist Radioligand LeadHunter Assay; conditions: Eurofins, read-out: EC50 or IC50, V2 Human Vasopressin/Oxytocin GPCR
T3 construct: Eurofins (contract assay)
T3 sequence (P30518 whole entry): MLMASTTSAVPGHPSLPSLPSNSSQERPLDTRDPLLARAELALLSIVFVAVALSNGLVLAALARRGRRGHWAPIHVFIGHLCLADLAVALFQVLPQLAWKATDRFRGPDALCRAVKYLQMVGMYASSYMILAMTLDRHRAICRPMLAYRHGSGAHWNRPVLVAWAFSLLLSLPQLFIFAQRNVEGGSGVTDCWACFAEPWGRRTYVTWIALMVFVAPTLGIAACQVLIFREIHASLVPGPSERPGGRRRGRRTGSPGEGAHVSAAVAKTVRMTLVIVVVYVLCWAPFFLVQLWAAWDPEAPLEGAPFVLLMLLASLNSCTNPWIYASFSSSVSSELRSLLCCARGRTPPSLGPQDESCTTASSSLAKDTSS
Description: as §4

[8] = target: T4, Phosphodiesterase 10A2 (Homo sapiens, UniProt Q9Y233); assay: Enzymatic LeadHunter Assay; format: biochemical; conditions: Eurofins enzymatic; read-out: EC50 or IC50, Phosphodiesterase 10A2
T4 construct: Eurofins (contract assay)
T4 sequence (Q9Y233 267-1055): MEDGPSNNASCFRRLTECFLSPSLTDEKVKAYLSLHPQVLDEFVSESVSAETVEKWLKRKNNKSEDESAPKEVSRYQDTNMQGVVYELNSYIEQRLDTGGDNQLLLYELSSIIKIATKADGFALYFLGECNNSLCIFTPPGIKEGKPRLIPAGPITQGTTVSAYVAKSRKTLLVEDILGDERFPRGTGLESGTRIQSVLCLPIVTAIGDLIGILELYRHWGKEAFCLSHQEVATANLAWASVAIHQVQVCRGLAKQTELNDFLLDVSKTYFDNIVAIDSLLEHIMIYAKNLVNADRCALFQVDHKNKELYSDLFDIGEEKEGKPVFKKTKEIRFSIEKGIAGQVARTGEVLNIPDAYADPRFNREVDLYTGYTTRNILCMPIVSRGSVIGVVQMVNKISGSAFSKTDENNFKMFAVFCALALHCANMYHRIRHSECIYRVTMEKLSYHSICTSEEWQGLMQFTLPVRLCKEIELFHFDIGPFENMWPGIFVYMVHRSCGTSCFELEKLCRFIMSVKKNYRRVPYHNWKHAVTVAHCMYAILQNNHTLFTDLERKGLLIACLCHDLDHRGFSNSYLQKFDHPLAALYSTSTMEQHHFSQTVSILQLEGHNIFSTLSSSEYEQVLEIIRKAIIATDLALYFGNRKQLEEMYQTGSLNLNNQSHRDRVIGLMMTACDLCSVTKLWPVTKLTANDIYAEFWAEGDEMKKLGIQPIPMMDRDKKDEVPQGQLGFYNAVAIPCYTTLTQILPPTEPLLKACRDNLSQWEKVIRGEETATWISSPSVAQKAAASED
Description: as §4

[9] = target: T5, Thromboxane Synthase (Homo sapiens, UniProt P24557); assay: Enzymatic LeadHunter Assay; format: biochemical; conditions: Eurofins enzymatic; read-out: EC50 or IC50, Thromboxane Synthase
T5 construct: Eurofins (contract assay)
T5 sequence (P24557 whole entry): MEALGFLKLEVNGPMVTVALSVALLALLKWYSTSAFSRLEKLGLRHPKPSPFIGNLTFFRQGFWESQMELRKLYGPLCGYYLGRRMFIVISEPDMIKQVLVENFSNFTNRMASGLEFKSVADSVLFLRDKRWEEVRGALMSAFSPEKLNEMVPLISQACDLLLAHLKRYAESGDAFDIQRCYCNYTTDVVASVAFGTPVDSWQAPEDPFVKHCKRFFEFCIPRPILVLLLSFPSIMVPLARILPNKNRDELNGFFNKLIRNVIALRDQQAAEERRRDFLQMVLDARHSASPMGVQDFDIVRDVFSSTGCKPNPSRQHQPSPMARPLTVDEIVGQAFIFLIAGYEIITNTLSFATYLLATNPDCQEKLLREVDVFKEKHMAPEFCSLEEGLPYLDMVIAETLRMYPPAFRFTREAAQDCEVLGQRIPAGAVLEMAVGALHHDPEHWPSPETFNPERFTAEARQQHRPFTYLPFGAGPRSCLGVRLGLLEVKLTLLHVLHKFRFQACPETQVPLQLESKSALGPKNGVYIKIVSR
Description: as §4

[10] = target: human CB2R (Homo sapiens, UniProt P34972); assay: Competition binding assay, displacement of [3H]-CP-55,940; design: host or cells: HEK-293 membranes; conditions: displacement of [3H]-CP-55,940, HEK-293 membranes; read-out: EC50 or IC50, cannabinoid receptor 2
Sequence of human CB2R (P34972 whole entry): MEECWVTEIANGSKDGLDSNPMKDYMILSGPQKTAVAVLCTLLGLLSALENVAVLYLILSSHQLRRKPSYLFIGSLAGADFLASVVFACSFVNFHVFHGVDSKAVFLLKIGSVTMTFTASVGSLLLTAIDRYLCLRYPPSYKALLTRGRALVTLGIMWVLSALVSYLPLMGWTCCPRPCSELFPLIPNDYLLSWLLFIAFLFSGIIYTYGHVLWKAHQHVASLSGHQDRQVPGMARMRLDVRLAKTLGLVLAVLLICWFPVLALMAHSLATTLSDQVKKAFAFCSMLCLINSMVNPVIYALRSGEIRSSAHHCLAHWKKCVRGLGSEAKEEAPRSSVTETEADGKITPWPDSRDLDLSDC
Description: Binding assays at equilibrium were conducted as described in Di Micco et al., 2024. […]. All compounds were evaluated following the manufacturer’s protocol (PerkinElmer distributed by Revvity, Italy). […] The K i values were calculated using the Cheng-Prusoff equation, based on the IC50 values obtained through GraphPad PRISM software (version 10.2.2). The results are expressed as K i (μM), represented as mean ± SEM, and reflect the average of three independent experiments performed in duplicate.

Compound | EC50 [1] [µM] | EC50 [2] [µM] | EC50 [3] [µM] | EC50 [4] [µM] | IC50 [5] [µM] | IC50 [6] [µM] | IC50 [7] [µM] | IC50 [8] [µM] | IC50 [9] [µM] | IC50 [10]
CC(C)C[C@H]1C(=O)N(Cc2ccc(C(F)(F)F)cc2)c2ccccc2C(=O)N1Cc1ccc(C(F)(F)F)cc1 [Compound 31, (S)-3-Isobutyl-1,4-bis(4-(trifluoromethyl)benzyl)-3,4-dihydro-1H-benzo[e][1,4]diazepine-2,5-dione] | 0.65 ± 0.4 | > 40 | 17.3 ± 2.38 | > 40 | > 30 | ≥ 30 | ≥ 30 | ≥ 30 | ≥ 30 | 9.7 ± 0.67 µM
CC(C)C[C@@H](C(=O)OCc1ccccc1)N1Cc2ccccc2NC1=O [Compound 63, Benzyl (S)-4-Methyl-2-(2-oxo-1,4-dihydroquinazolin-3(2H)-yl)pentanoate] | 2.29 ± 1.12 | 36.4 ± 3.15 | 27.9 ± 2.44 | 23.2 ± 4.17 | > 30 | ≥ 30 | ≥ 30 | ≥ 30 | ≥ 30 | 6.9 µM and 6.91 µM
